From patent US11684591B2, “Use of a GABAA receptor allosteric enhancer in medicine” (XI'AN LIBANG ZHAOXIN BIOTECHNOLOGY CO., LTD., priority 2018, dated 2023)

Legend:
[1] = Distribution in brain tissues after intravenous administration in rats (LC-MS/MS); format: in vivo, SD rats
Protocol: 1. Comparative Test of the Distribution in Brain Tissues of Compound 1 and Dipropofol (3,3′, 5,5′-Tetraisopropyl-4,4′-Biphenol) after Intravenous Administration in Rats
72 SD rats, weighing 200 to 220 g, were randomly divided into 12 groups (6 per time group), and fasted for 12 h before administration. A dose of 45 mg/kg was intravenously administered with Compound 1 or the dipropofol respectively, and the rates were sacrificed at 5 min, 15 min, 30 min, 1 h, 2 h and 4 h after the administration. The brain tissues were removed immediately, rinsed with ice-cold distilled water, blotted dry, and frozen at −40° C. for storage. The concentration of Compound 1 or the dipropofol in the brain tissues at different points in time after administration in rats was measured by LC-MS/MS, as shown in Table 1 and FIG. 1.

[2] = system: GABAA, Chloride Channel, TBPS; test: [35S]TBPS radioligand receptor competitive binding test; set-up: species or system rats; conditions: [35S]TBPS competitive binding
Protocol: 2. In Vitro GABAA Receptor Target Affinity Test
A radioligand ([^35S] TBPS) receptor competitive binding test was used to evaluate the affinity of the test compound (10 uM) with GABAA receptors.

[3] = system: PTZ-induced tonic-clonic seizures; test: Antiepileptic test in rats with PTZ-induced seizures; format: in vivo, male SD rats; set-up: key to Seizure Intensity (total score of 7 animals): summed score: grade V = 5, IV = 4, III = 3, below III = 0; conditions: 45 mg/kg i.v.; for Number of episodes (animals), grade III / Number of episodes (animals), grade IV / Number of episodes (animals), grade V / Seizure Intensity (total score of 7 animals): n = 7
Protocol: 3. Antiepileptic Test of Compounds 1 and Dipropofol (3,3′, 5,5′-Tetraisopropyl-4,4′-Biphenol) in Rats with PTZ-Induced Seizures
In this test, male SD rats (Xi'an Jiaotong University), weighing 200 to 250 g, were used and intravenously administrated with 45 mg/kg of a Dipropofol injection, a Compound 1 injection, and blank solvent of the same volume. 1, 3, 5, 10, 15, 30, 60, 90 mins, and 120 mins after the intravenous administration, 70 mg/kg of PTZ was intraperitoneally injected in the rats to induce tonic-clonic seizures. 7 rats were used for each time point in each drug group. Rat seizure intensity was recorded in accordance with the Racine grading criteria in grade III to V seizure status. Scores were recorded according to the seizure intensity: 5 points for grade V, 4 points for grade IV, 3 points for grade III, and 0 point for below grade III.

[4] = PTZ 70 mg/kg i.p. 1 min after administration
[5] = PTZ 70 mg/kg i.p. 3 min after administration
[6] = PTZ 70 mg/kg i.p. 5 min after administration
[7] = PTZ 70 mg/kg i.p. 10 min after administration
[8] = PTZ 70 mg/kg i.p. 15 min after administration
[9] = PTZ 70 mg/kg i.p. 30 min after administration
[10] = PTZ 70 mg/kg i.p. 60 min after administration
[11] = PTZ 70 mg/kg i.p. 90 min after administration
[12] = PTZ 70 mg/kg i.p. 120 min after administration

SMILES: CCCc1cc(-c2cc(CCC)c(O)c(C(C)C)c2)cc(C(C)C)c1O [Compound 1, 4,4′-dihydroxy-3,3′-diisopropyl-5,5′-dipropylbiphenyl]
- AUC0-4h in the brain tissues relative to that of the dipropofol ([1]; 45 mg/kg i.v.): about 1.31 times
- Time at which concentration peaked in the brain tissues ([1]; 45 mg/kg i.v.): 15 min
- Concentration in the brain tissues relative to that of the dipropofol ([1]; 45 mg/kg i.v., 5 min after administration): 2.75 times
- concentration at 5 min ([1]; SD, rat, brain, iv, 45 mg/kg i.v., 5 min after administration, average, read-out: Drug concentration in brain tissues): 35200 ng/g
- concentration at 15 min ([1]; SD, rat, brain, iv, 45 mg/kg i.v., 15 min after administration, average, read-out: Drug concentration in brain tissues): 42700 ng/g
- concentration at 30 min ([1]; SD, rat, brain, iv, 45 mg/kg i.v., 30 min after administration, average, read-out: Drug concentration in brain tissues): 39800 ng/g
- concentration at 1 h ([1]; SD, rat, brain, iv, 45 mg/kg i.v., 1 h after administration, average, read-out: Drug concentration in brain tissues): 32000 ng/g
- concentration at 2 h ([1]; SD, rat, brain, iv, 45 mg/kg i.v., 2 h after administration, average, read-out: Drug concentration in brain tissues): 22700 ng/g
- concentration at 4 h ([1]; SD, rat, brain, iv, 45 mg/kg i.v., 4 h after administration, average, read-out: Drug concentration in brain tissues): 7750 ng/g
- Brain entry rate and brain intake amount compared with dipropofol ([1]; same i.v. dose): significantly higher brain entry rate and brain intake amount than the dipropofol
- Affinity for the GABAA receptors (in words) [2]: high affinity for the GABAA receptors, which affinity is comparable to that of the dipropofol
- IC50 ([2]; rats, test concentration 30, 10, 3, 1, 0.3 uM): 2930 nM
- Number of episodes (animals), grade III [3, 4]: 2
- Number of episodes (animals), grade IV [3, 4]: 2
- Number of episodes (animals), grade V [3, 4]: 0
- Seizure Intensity (total score of 7 animals) [3, 4]: 14
- Number of episodes (animals), grade III [3, 5]: 0
- Number of episodes (animals), grade IV [3, 5]: 0
- Number of episodes (animals), grade V [3, 5]: 0
- Seizure Intensity (total score of 7 animals) [3, 5]: 0
- Number of episodes (animals), grade III [3, 6]: 0
- Number of episodes (animals), grade IV [3, 6]: 0
- Number of episodes (animals), grade V [3, 6]: 0
- Seizure Intensity (total score of 7 animals) [3, 6]: 0
- Number of episodes (animals), grade III [3, 7]: 0
- Number of episodes (animals), grade IV [3, 7]: 0
- Number of episodes (animals), grade V [3, 7]: 0
- Seizure Intensity (total score of 7 animals) [3, 7]: 0
- Number of episodes (animals), grade III [3, 8]: 0
- Number of episodes (animals), grade IV [3, 8]: 0
- Number of episodes (animals), grade V [3, 8]: 0
- Seizure Intensity (total score of 7 animals) [3, 8]: 0
- Number of episodes (animals), grade III [3, 9]: 0
- Number of episodes (animals), grade IV [3, 9]: 0
- Number of episodes (animals), grade V [3, 9]: 0
- Seizure Intensity (total score of 7 animals) [3, 9]: 0
- Number of episodes (animals), grade III [3, 10]: 0
- Number of episodes (animals), grade IV [3, 10]: 0
- Number of episodes (animals), grade V [3, 10]: 0
- Seizure Intensity (total score of 7 animals) [3, 10]: 0
- Number of episodes (animals), grade III [3, 11]: 0
- Number of episodes (animals), grade IV [3, 11]: 0
- Number of episodes (animals), grade V [3, 11]: 0
- Seizure Intensity (total score of 7 animals) [3, 11]: 0
- Number of episodes (animals), grade III [3, 12]: 0
- Number of episodes (animals), grade IV [3, 12]: 0
- Number of episodes (animals), grade V [3, 12]: 0
- Seizure Intensity (total score of 7 animals) [3, 12]: 0
- Time after administration for which the potency can be maintained ([3]; rats): ≥ 120 min
